Data on 7 compounds can be found in US20040048870A1, “Composition for the prevention and treatment of migraine headaches” (priority 2002, published 2004).

One assay concerns migraine headaches. The experiment in a line: patient history of earlier medication (headache questionnaire prior to institution of therapy). It counts as in vivo, human. To be noted: before therapy; for success and side effects of earlier medication: Example 2 patient; for relief of acute pain by abortive agent: Example 1 patient. An excerpt: There were no accompanying autonomic symptoms. […] The patient was not exposed to xanthines.

For assay [1], the system named is headaches in patients with low serum levels of ionized magnesium. To be noted: intravenous infusion of one gram of magnesium; cited from earlier work.
In assay [2] the test system is migraine. To be noted: 600 mg magnesium orally versus placebo; cited from earlier work.
Assay [3] concerns migraine. To be noted: 400 mg oral riboflavin once a day; at four months; cited from earlier work.

Take `CCOC(=O)C1(c2ccccc2)CCN(C)CC1` [Demerol]: the “success and side effects of earlier medication” value in the assay with migraine headaches was “varying success with varying side effects”.
For the compound `CNS(=O)(=O)Cc1ccc2[nH]cc(CCN(C)C)c2c1` [Imitrex], the “success and side effects of earlier medication” value in the assay on migraine headaches was “varying success with varying side effects”.
For the compound `CC(=O)Nc1ccc(O)cc1` [acetaminophen], the “relief of acute pain by abortive agent” value in the assay on migraine headaches is listed as “some, but incomplete, relief”.
For `CC(=O)Oc1ccccc1C(=O)O` [aspirin], the “relief of acute pain by abortive agent” value in the assay on migraine headaches is recorded as “some, but incomplete, relief”.
Same read-out and setting: next, `CC(C)Cc1ccc(C(C)C(=O)O)cc1` (stereo not shown) [ibuprofen]: “some, but incomplete, relief”.
Take `[Mg+2]` [magnesium]: the headache relief entry in assay [1] is “relieved headaches”. Also, in the assay on migraine [2], the “duration of the attacks” value is given as “decreased in the magnesium group, but not significantly”; the frequency of attacks entry is on record as “significant reduction”; the “intensity of the attacks” value is reported as “decreased in the magnesium group, but not significantly”.
For `Cc1cc2nc3c(=O)[nH]c(=O)nc-3n(C[C@H](O)[C@H](O)[C@H](O)CO)c2cc1C` [riboflavin, Riboflavin], the “number of days the patients experienced migraine attacks” value in the assay with migraine [3] is given as “statistically significant decrease”.
